Reference: ChEMBL document CHEMBL4359822, “Design, synthesis of 4,5-diazafluorene derivatives and their anticancer activity via targeting telomeric DNA G-quadruplex” (Eur J Med Chem, 2019)
Calls of active or inactive are those of the source. The calls are words filed in the database; no cut-off is given here.

Columns and labels:
[1] = Binding affinity to biotinylated Tel26nt double stranded DNA (unknown origin) at 1:1 ratio of test compound to DNA by SPR analysis
[2] = Binding affinity to biotinylated Tel26nt double stranded DNA (unknown origin) assessed as association rate constant by SPR analysis
[3] = Binding affinity to Tel-26nt mutated-single-stranded DNA (unknown origin) at 24 uM incubated for 24 hrs by EMSA
HepG2 [4] = assay: Inhibition of cell migration in human HepG2 cells at 0.4 uM incubated for 48 hrs by wound healing assay relative to control; format: functional; conditions: HepG2, 48 h
[5] = Binding affinity to Tel26nt double stranded DNA (unknown origin) at 24 uM incubated for 24 hrs by EMSA
A549 [6] = assay: Inhibition of cell migration in human A549 cells at 0.4 uM incubated for 48 hrs by wound healing assay relative to control; format: functional; conditions: A549, 48 h
[7] = Binding affinity to Tel-26nt mutated-single-stranded DNA (unknown origin) at 4 to 16 uM measured after each titration for 15 mins during 24 hrs incubation by circular dichroism analysis
[8] = Selectivity ratio of binding affinity to biotinylated Tel26nt double stranded DNA (unknown origin) to binding affinity to biotinylated Tel-26nt G-rich DNA (unknown origin)
[9] = Binding affinity to Tel-26nt G-rich DNA (unknown origin) assessed as change in melting temperature at 2 uM by UV-vis spectrophotometry (reference value: 38.33 +/- 0.07 degreeC)
MCF7 [10] = assay: Antiproliferative activity against human MCF7 cells incubated for 36 hrs by CCK8 assay; format: functional, cell-based; conditions: MCF7, 36 h
[11] = target: Telomerase reverse transcriptase (Homo sapiens) (UniProt O14746); assay: Inhibition of telomerase activity in human A549 cells at 2 to 8 uM by TRAP assay; format: cell-based
Chain of Telomerase reverse transcriptase (Homo sapiens) (O14746 whole entry): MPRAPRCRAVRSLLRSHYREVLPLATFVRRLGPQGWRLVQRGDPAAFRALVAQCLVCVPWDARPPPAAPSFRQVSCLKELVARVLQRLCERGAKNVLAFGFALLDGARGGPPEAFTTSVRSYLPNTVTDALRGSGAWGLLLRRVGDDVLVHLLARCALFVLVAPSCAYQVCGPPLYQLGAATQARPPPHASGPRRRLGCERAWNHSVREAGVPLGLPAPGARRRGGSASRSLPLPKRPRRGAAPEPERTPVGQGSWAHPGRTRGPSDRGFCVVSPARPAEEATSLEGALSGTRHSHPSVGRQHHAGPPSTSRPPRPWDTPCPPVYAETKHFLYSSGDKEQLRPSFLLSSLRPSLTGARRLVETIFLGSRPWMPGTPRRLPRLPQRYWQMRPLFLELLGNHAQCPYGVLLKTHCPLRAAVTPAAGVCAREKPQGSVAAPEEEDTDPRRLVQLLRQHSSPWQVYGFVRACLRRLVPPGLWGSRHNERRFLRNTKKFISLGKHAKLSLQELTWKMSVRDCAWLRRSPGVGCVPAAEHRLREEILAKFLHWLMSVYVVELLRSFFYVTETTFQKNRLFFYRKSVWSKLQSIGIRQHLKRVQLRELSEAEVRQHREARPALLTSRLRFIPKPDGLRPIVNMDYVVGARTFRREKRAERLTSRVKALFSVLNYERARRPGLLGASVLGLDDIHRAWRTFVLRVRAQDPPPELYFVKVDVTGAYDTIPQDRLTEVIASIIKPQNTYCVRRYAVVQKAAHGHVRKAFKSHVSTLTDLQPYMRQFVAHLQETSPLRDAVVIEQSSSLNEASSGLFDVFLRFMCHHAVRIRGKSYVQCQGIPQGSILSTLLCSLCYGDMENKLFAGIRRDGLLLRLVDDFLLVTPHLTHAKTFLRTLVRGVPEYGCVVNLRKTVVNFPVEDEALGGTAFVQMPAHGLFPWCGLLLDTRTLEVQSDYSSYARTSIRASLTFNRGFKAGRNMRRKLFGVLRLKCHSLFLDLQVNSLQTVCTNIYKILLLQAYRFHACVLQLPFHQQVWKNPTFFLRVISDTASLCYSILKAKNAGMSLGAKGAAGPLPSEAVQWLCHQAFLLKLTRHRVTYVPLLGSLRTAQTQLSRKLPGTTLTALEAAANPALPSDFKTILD

[12] = Selectivity index, ratio of IC50 for human MRC5 cells to IC50 for human MCF7 cells; format: toxicity; conditions: MRC5 cells versus MCF7 cells, read-out: Ratio IC50
A549 [13] = assay: Inhibition of cell migration in human A549 cells at 0.2 uM incubated for 48 hrs by wound healing assay relative to control; format: functional; conditions: A549, 48 h
A549 [14] = assay: Inhibition of cell migration in human A549 cells at 0.1 uM incubated for 48 hrs by wound healing assay relative to control; format: functional; conditions: A549, 48 h
[15] = Binding affinity to biotinylated Tel26nt double stranded DNA (unknown origin) assessed as association equilibrium constant by SPR analysis
[16] = Binding affinity to biotinylated Tel-26nt G-rich DNA (unknown origin) assessed as dissociation rate constant by SPR analysis
MRC5 = assay: Antiproliferative activity against human MRC5 cells incubated for 36 hrs by CCK8 assay; format: cell-based; conditions: MRC5, 36 h
AGS [17] = assay: Inhibition of cell migration in human AGS cells at 0.4 uM incubated for 48 hrs by wound healing assay relative to control; format: functional
[18] = Binding affinity to Tel-26nt G-rich DNA (unknown origin) at 4 to 16 uM measured after each titration for 15 mins during 24 hrs incubation by circular dichroism analysis
[19] = Binding affinity to 26-nt telomeric G-rich RNA (unknown origin) at 24 uM incubated for 24 hrs by EMSA
[20] = Selectivity index, ratio of IC50 for human MRC5 cells to IC50 for human HEPG2 cells
AGS [21] = assay: Inhibition of cell migration in human AGS cells at 0.2 uM incubated for 48 hrs by wound healing assay relative to control; format: functional
[22] = Binding affinity to Tel-26nt G-rich DNA (unknown origin) assessed as change in melting temperature at 8 uM by UV-vis spectrophotometry
MCF7 [23] = assay: Inhibition of cell migration in human MCF7 cells at 0.1 uM incubated for 48 hrs by wound healing assay relative to control; format: functional; conditions: MCF7, 48 h
[24] = Binding affinity to Tel-26nt G-rich DNA (unknown origin) incubated for 24 hrs by EMSA
A549 [25] = assay: Antiproliferative activity against human A549 cells incubated for 36 hrs by CCK8 assay; format: functional, cell-based; conditions: A549, 36 h
[26] = Binding affinity to biotinylated Tel-26nt G-rich DNA (unknown origin) at 1:1 ratio of test compound to DNA by SPR analysis
[27] = Binding affinity to Tel26nt double stranded DNA (unknown origin) at 4 to 16 uM measured after each titration for 15 mins during 24 hrs incubation by circular dichroism analysis
[28] = Binding affinity to biotinylated Tel-26nt G-rich DNA (unknown origin) assessed as association rate constant by SPR analysis
AGS [29] = assay: Inhibition of cell migration in human AGS cells at 0.1 uM incubated for 48 hrs by wound healing assay relative to control; format: functional
MCF7 [30] = assay: Antiproliferative activity against human MCF7 cells at 10 uM incubated for 36 hrs by CCK8 assay; format: functional, cell-based
HepG2 [31] = assay: Antiproliferative activity against human HepG2 cells incubated for 36 hrs by CCK8 assay; format: functional, cell-based; conditions: HepG2, 36 h
HepG2 [32] = assay: Inhibition of cell migration in human HepG2 cells at 0.1 uM incubated for 48 hrs by wound healing assay relative to control; format: functional; conditions: HepG2, 48 h
A549 [33] = assay: Antiproliferative activity against human A549 cells at 10 uM incubated for 36 hrs by CCK8 assay; format: functional, cell-based
[34] = Binding affinity to Tel-26nt G-rich DNA (unknown origin) at 10 uM by UV-Vis spectrophotometric analysis
[35] = Binding affinity to Tel-26nt G-rich DNA (unknown origin) assessed as change in melting temperature by UV-vis spectrophotometry
MCF7 [36] = assay: Inhibition of cell migration in human MCF7 cells at 0.4 uM incubated for 48 hrs by wound healing assay relative to control; format: functional; conditions: MCF7, 48 h
[37] = Binding affinity to Tel-26nt G-rich DNA (unknown origin) assessed as change in melting temperature at 8 uM by UV-vis spectrophotometry (reference value: 38.33 +/- 0.07 degreeC)
[38] = Binding affinity to Tel-26nt G-rich DNA (unknown origin) at 12 uM incubated for 24 hrs by EMSA
HepG2 [39] = assay: Inhibition of cell migration in human HepG2 cells at 0.2 uM incubated for 48 hrs by wound healing assay relative to control; format: functional; conditions: HepG2, 48 h
[40] = Binding affinity to Tel-26nt G-rich DNA (unknown origin) at 0.25 :1 to 6 : 1 ratio of test compound to DNA measured after each titration for 15 mins during 24 hrs incubation by circular dichroism analysis
[41] = Binding affinity to Tel-26nt C-rich DNA (unknown origin) at 24 uM incubated for 24 hrs by EMSA
[42] = Selectivity index, ratio of IC50 for human MRC5 cells to IC50 for human A549 cells; format: toxicity; conditions: MRC5 cells versus A549 cells, read-out: Ratio IC50
[43] = Binding affinity to Tel-26nt G-rich DNA (unknown origin) at => 3 uM incubated for 24 hrs by EMSA
[44] = target: Telomerase reverse transcriptase (Homo sapiens) (UniProt O14746); assay: Inhibition of telomerase activity in human A549 cells at 8 uM by TRAP assay relative to control; format: cell-based
[45] = Binding affinity to biotinylated Tel26nt double stranded DNA (unknown origin) assessed as dissociation rate constant by SPR analysis
MCF7 [46] = assay: Inhibition of cell migration in human MCF7 cells at 0.2 uM incubated for 48 hrs by wound healing assay relative to control; format: functional; conditions: MCF7, 48 h
[47] = Binding affinity to biotinylated Tel-26nt G-rich DNA (unknown origin) assessed as association equilibrium constant by SPR analysis
[48] = Selectivity index, ratio of IC50 for human MRC5 cells to IC50 for human AGS cells; format: toxicity; conditions: MRC5 cells versus AGS cells, read-out: Ratio IC50
[49] = Binding affinity to Tel-26nt G-rich DNA (unknown origin) assessed as change in melting temperature at 4 uM by UV-vis spectrophotometry (reference value: 38.33 +/- 0.07 degreeC)
AGS [50] = assay: Antiproliferative activity against human AGS cells incubated for 36 hrs by CCK8 assay; format: functional, cell-based
AGS [51] = assay: Antiproliferative activity against human AGS cells at 10 uM incubated for 36 hrs by CCK8 assay; format: functional, cell-based
HepG2 [52] = assay: Antiproliferative activity against human HepG2 cells at 10 uM incubated for 36 hrs by CCK8 assay; format: functional, cell-based
[53] = Binding affinity to Tel-26nt G-rich DNA (unknown origin) assessed as change in melting temperature at 2 uM by UV-vis spectrophotometry

Which results are given for `CN(C)CCCn1cc(C=C2c3cccnc3-c3ncccc32)c(-c2ccc(Br)cc2)n1`?
Activity [1]: inactive; Ka [2]: 1.13 ×10³ /M/s; Activity [3]: inactive; inhibition at 0.4 µM (HepG2 [4]): 69.3%; Activity [5]: Active; inhibition at 0.4 µM (A549 [6]): 84.5%; Activity [7]: inactive; Selectivity ratio [8]: > 1000; Tm [9]: 48.6 °C; IC50 (MCF7 [10]): 5.27 µM; inhibition [11]: Active; selectivity ratio [12]: 1.46; inhibition at 0.2 µM (A549 [13]): 61.7%; inhibition at 0.1 µM (A549 [14]): 22.3%; KA [15]: 4.38 ×10⁴ /M; Kd [16]: 9.49 ×10⁻² /s; IC50 (MRC5): 7.92 µM; inhibition at 0.4 µM (AGS [17]): 89.8%; Activity [18]: Active; Activity [19]: inactive; Ratio IC50 [20]: 2.21; inhibition at 0.2 µM (AGS [21]): 71.7%; ΔTm [22]: 24.3 °C; inhibition at 0.1 µM (MCF7 [23]): 31.9%; Activity [24]: Dose-dependent effect; IC50 (A549 [25]): 1.13 µM; Activity [26]: Active; Activity [27]: inactive; Ka [28]: 6.68 ×10⁶ /M/s; inhibition at 0.1 µM (AGS [29]): 52.2%; growth inhibition (GI) (MCF7 [30]): Active; IC50 (HepG2 [31]): 3.48 µM; inhibition at 0.1 µM (HepG2 [32]): 27.9%; growth inhibition (GI) (A549 [33]): Active; Activity [34]: Active; deltaTm [35]: Dose-dependent effect; inhibition at 0.4 µM (MCF7 [36]): 67.3%; Tm [37]: 44.9 °C; Activity [38]: Active; inhibition at 0.2 µM (HepG2 [39]): 49.3%; Activity [40]: Active; Activity [41]: inactive; selectivity ratio [42]: 7.01; Activity [43]: Active; inhibition [44]: 61.7%; Kd [45]: 2.58 ×10⁻² /s; inhibition at 0.2 µM (MCF7 [46]): 50.3%; KA [47]: 7.04 ×10⁷ /M; selectivity ratio [48]: 4.25; Tm [49]: 53.1 °C; IC50 (AGS [50]): 1.81 µM; growth inhibition (GI) (AGS [51]): Active; growth inhibition (GI) (HepG2 [52]): Active

With `CN(C)CCCn1cc(C=C2c3cccnc3-c3ncccc32)c(-c2ccc(Cl)cc2)n1` as the compound, how does the inhibition at 0.4 µM (HepG2 [4]) read?
The inhibition at 0.4 µM was 62.3%.

What about the inhibition at 0.4 µM (A549 [6]) of the same compound?
Its inhibition at 0.4 µM is 78%.

What about the Tm [9] of the same compound?
The Tm was 45.6 °C.

What about the IC50 (MCF7 [10]) of the same compound?
The IC50 was 11.8 µM.

What about the inhibition [11] of the same compound?
The inhibition was “Active”.

And the selectivity ratio [12]?
The selectivity ratio was 0.83.

What about the inhibition at 0.2 µM (A549 [13]) of the same compound?
Its inhibition at 0.2 µM is 54.5%.

And the inhibition at 0.1 µM (A549 [14])?
The inhibition at 0.1 µM was 21.2%.

What about the IC50 (MRC5) of the same compound?
Its IC50 is 9.81 µM.

And the inhibition at 0.4 µM (AGS [17])?
Its inhibition at 0.4 µM is 80%.

And the “Ratio IC50” value [20]?
The value was 1.52.

And the inhibition at 0.2 µM (AGS [21])?
The inhibition at 0.2 µM was 56%.

What about the inhibition at 0.1 µM (MCF7 [23]) of the same compound?
Its inhibition at 0.1 µM is 17.9%.

What about the Activity [24] of the same compound?
Its Activity is “Dose-dependent effect”.

What about the IC50 (A549 [25]) of the same compound?
Its IC50 is 4.15 µM.

And the inhibition at 0.1 µM (AGS [29])?
Its inhibition at 0.1 µM is 37.5%.

What about the ΔTm [53] of the same compound?
The ΔTm was 4.82 °C.

And the “growth inhibition (GI)” value (MCF7 [30])?
Its value is “Active”.

And the IC50 (HepG2 [31])?
Its IC50 is 6.43 µM.

What about the inhibition at 0.1 µM (HepG2 [32]) of the same compound?
The inhibition at 0.1 µM was 19.4%.

What about the “growth inhibition (GI)” value (A549 [33]) of the same compound?
Its value is “Active”.

And the deltaTm [35]?
Its deltaTm is “Dose-dependent effect”.

And the inhibition at 0.4 µM (MCF7 [36])?
The inhibition at 0.4 µM was 54.8%.

What about the Tm [37] of the same compound?
The Tm was 43.4 °C.

What about the inhibition at 0.2 µM (HepG2 [39]) of the same compound?
Its inhibition at 0.2 µM is 43.2%.

What about the selectivity ratio [42] of the same compound?
The selectivity ratio was 2.36.

And the Activity [43]?
The Activity was “Active”.

And the inhibition at 0.2 µM (MCF7 [46])?
Its inhibition at 0.2 µM is 41.2%.

And the selectivity ratio [48]?
Its selectivity ratio is 1.78.

And the Tm [49]?
Its Tm is 45.7 °C.

What about the IC50 (AGS [50]) of the same compound?
Its IC50 is 5.52 µM.

What about the “growth inhibition (GI)” value (AGS [51]) of the same compound?
The value was “Active”.

And the “growth inhibition (GI)” value (HepG2 [52])?
The value was “Active”.
